One data set concerns 5 × FAD mice. Nature of the data set: Tolerability and body weight during 30-day treatment. Format: in vivo, mouse. An excerpt:
(§1) The amyloidogenic characteristics of 5 × FAD mice have been described previously. In brief, 5 × FAD mice express the Swedish/London/Florida mutations of the human amyloid precursor protein (hAPP) and the M146L/L286V mutations of the human presenilin-1 (PSEN1). They develop the early and robust pathology of AD with the cognitive and behavioural impairments. The 5 × FAD mice have been widely used to test the possible efficacy of a compound targeted for AD[25][29]. We maintained the mice on a C57BL/6 × SJL hybrid background. All animal experiments were performed in accordance with the guidelines of the Asan Institute for Life Science for Laboratory Animal Care and Use (Seoul, Korea), where the animals had free access to water and food, and were housed on 12 h light/12 h dark cycle.
(§2) Chemicals used were freshly prepared shortly before administration to the animals. We treated 5 × FAD mice with 1 (1 mg kg^−1 of body weight) or the vehicle (1% v/v DMSO in 20 mM HEPES, pH 7.4, 150 mM NaCl) starting at 3 months of age, which is the same method used in our previous studies. 1 was daily injected into the lower abdomen of the 5 × FAD mice for 30 days.

In data set [1] the test system is 5 × FAD AD mouse model. Nature of the data set: Cerebral amyloid pathology (ELISA, 4G8 immunohistochemistry, Congo red). Format: in vivo. The note with it: 1 mg kg^−1 daily i.p., 30 days.
From the text: as §1
Chemicals used were freshly prepared shortly before administration to the animals. […]
We measured the levels of various types of Aβ in the brain as described previously. The protein fractions were serially prepared from the left hemispheres in PBS (pH 7.4), in 2% SDS and in 70% FA, and then subjected to the human Aβ40 and Aβ42 ELISA quantification according to the manufacturer's methods (Invitrogen, Carlsbad, CA, USA). The aggregated (Invitorgen) and oligomeric Aβ (82E1-specific; IBL International, Hamburg, Germany) ELISA quantifications were also performed using PBS fractions. The cerebral levels of Aβ40 and Aβ42 were represented as moles per gram of wet brain tissue, whereas the aggregated or oligomeric Aβ amounts were expressed as grams per gram of wet brain tissue.
12-μm sagittal sections of the brain were prepared from the right hemispheres on a cryostat (HM550; Microm, Walldorf, Germany), and mounted onto 1% poly-L-lysine-coated glass slides. […] The loads of amyloid deposits in the brain were expressed as the per cent area of 4G8-immunoreactive deposits or the number of congophilic plaques per mm^2 of a cortical region of interest.
A general note: In an ELISA, binding on a coated surface is turned into a signal by an enzyme label.

In data set [2] the test system is 5 × FAD AD mouse model. Briefly: Morris water maze test. Format: in vivo. The note with it: 1 mg kg^−1 daily i.p., 30 days. As for the experimental part: as §2
Mice were subjected to the Morris water maze test to assess their performance of spatial learning and memory. The water maze was a circular plastic pool (120 cm diameter) and filled with murky water (21.0±1.0 °C). A cylindrical escape platform (15 cm diameter) stood 0.5 cm under the water surface. Three hours after the 30th compound treatment, the mice were allowed the first training to swim and find the hidden escape platform in the water with three repeats per training. Thereafter, they daily tried the task on the next 4 consecutive days. Three hours after the final escape test, the platform was removed, and the mice exercised a probe trial for 60 s. The animal performance was traced with SMART Video Tracking System (Harvard Apparatus, Holliston, MA, USA).

The nature of data set [3]: Cell viability (MTT assay), compounds with and without metal ions. As to conditions: human, SK-N-BE(2)-M17 (M17) neuroblastoma cells; M17 cells, in the absence of Cu(II), 48 and 72 h. Format: cell-based, human. As for the experimental part:
The M17 cell line was purchased from the American Type Culture Collection (ATCC, Manassas, VA, USA). The cell line was maintained in media containing 50% minimum essential medium and 50% F12 (GIBCO, Grand Island, NY, USA), supplemented with 10% fetal bovine serum (Sigma), 100 U ml^−1 penicillin, and […] streptomycin (GIBCO). The cells were grown and maintained at 37 °C in a humidified atmosphere with 5% CO2. […] Cell viability upon treatment of compounds was determined using the MTT assay (Sigma). M17 cells were seeded in a 96-well plate (15,000 cells in 100 μl per well). The cells were treated with Aβ (20 μM) with or without CuCl2 or ZnCl2 (20 μM), followed by the addition of compounds (20 μM, 1% v/v final DMSO concentration), and incubated for 24 h. After incubation, 25 μl MTT (5 mg ml^−1 in phosphate buffered saline (PBS, pH 7.4, GIBCO) was added to each well and the plate was incubated for 4 h at 37 °C. Formazan produced by the cells was solubilized using an acidic solution of N,N-dimethylformamide (DMF, 50%, v/v aq) and SDS (20%, w/v) overnight at room temperature in the dark. The absorbance was measured at 600 nm using a microplate reader. Cell viability was calculated relative to cells containing an equivalent amount of DMSO.

[4] abbreviates: 1 mg kg^−1 daily, intraperitoneal, 30 days, 5 × FAD mice.

For `Nc1ccc(NCc2ccccn2)cc1` [compound 1, N^1-(pyridin-2-ylmethyl)benzene-1,4-diamine], in the data set on 5 × FAD mice (setting [4]), the “Body weight versus vehicle-treated mice” value is listed as “no difference in body weight” and the “Tolerability of repeated treatments” value is “tolerated the repeated treatments”. In the data set with 5 × FAD mice (5×FAD mice, 1 mg/kg/day, mean), the “Body weight, female, day 1” value is reported as 20.8 gram; the “Body weight, female, day 3” value worked out at 20.8 gram; the “Body weight, female, day 6” value stood at 20.8 gram; the “Body weight, female, day 9” value is recorded as 21.0 gram. Also, in the data set on 5 × FAD mice (5×FAD mice, 1 mg/kg/day, mean), the “Body weight, female, day 12” value came to 21.2 gram; the “Body weight, female, day 15” value turned out to be 20.8 gram; the “Body weight, female, day 18” value came out at 21.2 gram; the “Body weight, female, day 21” value came to 21.4 gram. Besides, in the data set on 5 × FAD mice (5×FAD mice, 1 mg/kg/day, mean), the “Body weight, female, day 24” value is 21.4 gram; the “Body weight, female, day 27” value is on record as 21.8 gram; the “Body weight, female, day 30” value worked out at 21.6 gram; the “Body weight, male, day 1” value is listed as 28.0 gram. Also, in the data set with 5 × FAD mice (5×FAD mice, 1 mg/kg/day, mean), the “Body weight, male, day 3” value turned out to be 27.6 gram; the “Body weight, male, day 6” value came to 27.6 gram; the “Body weight, male, day 9” value is 27.8 gram; the “Body weight, male, day 12” value is 27.4 gram. Besides, in the data set with 5 × FAD mice (5×FAD mice, 1 mg/kg/day, mean), the “Body weight, male, day 15” value worked out at 27.8 gram; the “Body weight, male, day 18” value was 28.0 gram; the “Body weight, male, day 21” value was found to be 27.8 gram; the “Body weight, male, day 24” value amounted to 27.6 gram. Moreover, in the data set with 5 × FAD mice (5×FAD mice, 1 mg/kg/day, mean), the “Body weight, male, day 27” value was found to be 28.0 gram and the “Body weight, male, day 30” value is reported as 27.0 gram. In the data set on 5 × FAD AD mouse model [1] (4G8-immunoreactive or congophilic plaques), the “Loads of Aβ deposits in the brain” value is on record as “reduced the loads of Aβ deposits”. In addition, the “Amounts of Aβ oligomers and aggregates” value with 5 × FAD AD mouse model [1] (ELISA, PBS fractions) is recorded as “decreased”. In the data set with 5 × FAD AD mouse model [1] (PBS-, SDS- and FA-soluble Aβ40/Aβ42, ELISA), the “Total Aβ level in the brain versus vehicle” value is recorded as “significantly lower”. Moreover, in the data set with 5 × FAD AD mouse model [2], the “Finding the hidden escape platform (trial trainings)” value is listed as “faster than the vehicle-treated 5 × FAD mice” and the “Probe trials, long-term spatial memory” value is on record as “significant improvement of the long-term spatial memory”.
In turn, `CN(C)c1ccc(NCc2ccc[nH]2)cc1` [compound 4, N^1-((1H-pyrrol-2-yl)methyl)-N^4,N^4-dimethylbenzene-1,4-diamine] displayed a viability at up to 20 μM in data set [3] of roughly 60%.

By viability is commonly meant the share of living cells, or the viability signal relative to a control.

(Values after article PMC5065625, “Structure-mechanism-based engineering of chemical regulators targeting distinct pathological factors in Alzheimer's disease” (Nature Communications, 2016).)
